# Experimental data as given in patent publication US20200392158A1, “INHIBITORS OF LEUCINE RICH REPEAT KINASE 2” (GLAXOSMITHKLINE INTELLECTUAL PROPERTY DEVELOPMENT LIMITED, priority 2017, published 2020).
# Legend:
# [1] = target: T1, LRRK2 kinase in SH-SY5Y cells over-expressing recombinant full length LRRK2 (Homo sapiens, UniProt Q5S007); experiment: Recombinant cellular LRRK2 AlphaScreen assay (LRRK2 Ser935 phosphorylation); format: cell-based; details: 60 min
# T1 construct: A BacMam virus expressing full length recombinant LRRK2 was purchased from Invitrogen; host or cells: SH-SY5Y human neuroblastoma cells transduced with BacMam LRRK2 virus
# In short: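 Read-out is AlphaScreen of LRRK2 pSer935 over total LRRK2 in lysates of SH-SY5Y cells over-expressing full-length LRRK2 via BacMam (24 h transduction). Cells were exposed 60 min at 37 °C to an 11-point 1-in-4 dilution series starting at 10 uM; sigmoidal fit.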
# [2] = target: T2, full length G2019 human LRRK2 (Homo sapiens, UniProt Q5S007, R50H); experiment: Full length G2019 human LRRK2 inhibition mass spectrometry assay; format: biochemical; details: LRRKtide to phospho-LRRKtide conversion, RapidFire MS, 2 mM ATP
# T2 construct: made in house; host or cells: HEK293 6E cells transduced with BacMam virus (virus generated in Sf9 cells)
# In short: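 Inhibition taken as reduced LRRKtide phosphorylation, quantified by RapidFire-coupled triple-quadrupole MS as product/(product+substrate) peak area. Reaction: 2 mM ATP, 25 μM peptide, ~25 nM full-length G2019 Flag-LRRK2, Hepes pH 7.2 buffer, room temperature for 1 h. 11-point 1-in-4 dilutions from 100 μM; logistic fit gives IC50, reported as pIC50.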
# T2 sequence (Q5S007 with tags, fused parts or gaps R50H): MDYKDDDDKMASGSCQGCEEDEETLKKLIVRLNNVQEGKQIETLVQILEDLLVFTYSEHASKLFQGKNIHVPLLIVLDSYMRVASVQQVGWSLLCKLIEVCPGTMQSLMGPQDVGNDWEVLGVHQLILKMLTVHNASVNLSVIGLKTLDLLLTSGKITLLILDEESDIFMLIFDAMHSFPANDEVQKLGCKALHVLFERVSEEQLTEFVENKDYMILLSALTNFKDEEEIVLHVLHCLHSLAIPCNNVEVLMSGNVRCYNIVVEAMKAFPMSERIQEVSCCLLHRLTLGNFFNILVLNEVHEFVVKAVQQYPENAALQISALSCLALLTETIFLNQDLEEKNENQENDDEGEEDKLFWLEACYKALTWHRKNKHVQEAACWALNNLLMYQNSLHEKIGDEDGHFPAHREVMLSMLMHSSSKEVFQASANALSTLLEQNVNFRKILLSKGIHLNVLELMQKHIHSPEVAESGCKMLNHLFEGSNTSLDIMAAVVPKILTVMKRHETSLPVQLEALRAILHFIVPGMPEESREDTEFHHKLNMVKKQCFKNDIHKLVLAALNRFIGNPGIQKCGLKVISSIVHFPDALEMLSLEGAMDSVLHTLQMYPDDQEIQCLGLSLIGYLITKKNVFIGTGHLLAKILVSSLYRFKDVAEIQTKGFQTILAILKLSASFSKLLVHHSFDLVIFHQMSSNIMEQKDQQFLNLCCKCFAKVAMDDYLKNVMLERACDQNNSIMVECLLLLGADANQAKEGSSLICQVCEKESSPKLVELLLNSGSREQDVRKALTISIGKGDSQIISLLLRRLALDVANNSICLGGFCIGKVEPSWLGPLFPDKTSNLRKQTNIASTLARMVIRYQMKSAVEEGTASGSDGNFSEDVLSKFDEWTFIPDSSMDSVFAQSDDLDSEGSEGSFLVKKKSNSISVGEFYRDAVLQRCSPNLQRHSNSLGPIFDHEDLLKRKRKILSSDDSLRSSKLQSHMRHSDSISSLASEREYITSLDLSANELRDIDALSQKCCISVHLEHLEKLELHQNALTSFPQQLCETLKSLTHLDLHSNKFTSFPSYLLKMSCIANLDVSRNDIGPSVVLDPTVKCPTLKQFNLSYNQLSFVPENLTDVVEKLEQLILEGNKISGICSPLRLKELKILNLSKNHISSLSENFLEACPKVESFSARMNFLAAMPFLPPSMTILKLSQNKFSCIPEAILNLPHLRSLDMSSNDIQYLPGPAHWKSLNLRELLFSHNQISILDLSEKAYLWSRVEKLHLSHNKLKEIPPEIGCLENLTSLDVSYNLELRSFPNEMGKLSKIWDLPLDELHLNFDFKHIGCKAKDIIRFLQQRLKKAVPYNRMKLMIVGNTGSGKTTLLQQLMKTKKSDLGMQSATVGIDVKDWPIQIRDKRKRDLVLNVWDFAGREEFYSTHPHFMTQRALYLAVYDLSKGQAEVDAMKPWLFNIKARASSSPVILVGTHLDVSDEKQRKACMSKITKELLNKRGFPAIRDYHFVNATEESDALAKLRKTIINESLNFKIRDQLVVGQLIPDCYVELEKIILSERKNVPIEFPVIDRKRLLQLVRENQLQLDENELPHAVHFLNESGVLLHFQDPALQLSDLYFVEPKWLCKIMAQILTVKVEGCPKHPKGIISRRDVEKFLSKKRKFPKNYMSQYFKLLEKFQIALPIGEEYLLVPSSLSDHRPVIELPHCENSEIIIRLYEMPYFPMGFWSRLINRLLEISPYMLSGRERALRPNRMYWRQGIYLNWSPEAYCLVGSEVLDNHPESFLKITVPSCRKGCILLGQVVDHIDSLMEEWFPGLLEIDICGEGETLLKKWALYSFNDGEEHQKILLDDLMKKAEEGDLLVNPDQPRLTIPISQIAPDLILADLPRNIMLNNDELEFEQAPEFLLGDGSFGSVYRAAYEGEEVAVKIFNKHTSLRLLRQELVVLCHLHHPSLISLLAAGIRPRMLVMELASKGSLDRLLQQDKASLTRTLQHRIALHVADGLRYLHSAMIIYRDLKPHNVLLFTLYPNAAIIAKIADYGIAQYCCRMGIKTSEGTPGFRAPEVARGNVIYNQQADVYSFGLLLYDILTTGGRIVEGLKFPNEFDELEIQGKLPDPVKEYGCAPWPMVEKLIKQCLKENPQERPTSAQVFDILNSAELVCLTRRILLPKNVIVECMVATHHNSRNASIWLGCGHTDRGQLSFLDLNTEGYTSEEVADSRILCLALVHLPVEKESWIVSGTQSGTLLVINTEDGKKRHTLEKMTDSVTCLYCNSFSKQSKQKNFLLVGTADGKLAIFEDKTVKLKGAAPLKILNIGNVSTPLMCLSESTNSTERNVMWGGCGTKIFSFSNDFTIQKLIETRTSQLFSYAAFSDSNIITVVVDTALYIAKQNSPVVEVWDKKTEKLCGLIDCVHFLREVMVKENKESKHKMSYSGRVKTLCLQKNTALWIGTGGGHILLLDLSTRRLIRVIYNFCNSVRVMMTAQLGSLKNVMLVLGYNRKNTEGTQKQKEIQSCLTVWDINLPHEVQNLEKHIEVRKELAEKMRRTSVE
# T1 sequence (Q5S007 whole entry): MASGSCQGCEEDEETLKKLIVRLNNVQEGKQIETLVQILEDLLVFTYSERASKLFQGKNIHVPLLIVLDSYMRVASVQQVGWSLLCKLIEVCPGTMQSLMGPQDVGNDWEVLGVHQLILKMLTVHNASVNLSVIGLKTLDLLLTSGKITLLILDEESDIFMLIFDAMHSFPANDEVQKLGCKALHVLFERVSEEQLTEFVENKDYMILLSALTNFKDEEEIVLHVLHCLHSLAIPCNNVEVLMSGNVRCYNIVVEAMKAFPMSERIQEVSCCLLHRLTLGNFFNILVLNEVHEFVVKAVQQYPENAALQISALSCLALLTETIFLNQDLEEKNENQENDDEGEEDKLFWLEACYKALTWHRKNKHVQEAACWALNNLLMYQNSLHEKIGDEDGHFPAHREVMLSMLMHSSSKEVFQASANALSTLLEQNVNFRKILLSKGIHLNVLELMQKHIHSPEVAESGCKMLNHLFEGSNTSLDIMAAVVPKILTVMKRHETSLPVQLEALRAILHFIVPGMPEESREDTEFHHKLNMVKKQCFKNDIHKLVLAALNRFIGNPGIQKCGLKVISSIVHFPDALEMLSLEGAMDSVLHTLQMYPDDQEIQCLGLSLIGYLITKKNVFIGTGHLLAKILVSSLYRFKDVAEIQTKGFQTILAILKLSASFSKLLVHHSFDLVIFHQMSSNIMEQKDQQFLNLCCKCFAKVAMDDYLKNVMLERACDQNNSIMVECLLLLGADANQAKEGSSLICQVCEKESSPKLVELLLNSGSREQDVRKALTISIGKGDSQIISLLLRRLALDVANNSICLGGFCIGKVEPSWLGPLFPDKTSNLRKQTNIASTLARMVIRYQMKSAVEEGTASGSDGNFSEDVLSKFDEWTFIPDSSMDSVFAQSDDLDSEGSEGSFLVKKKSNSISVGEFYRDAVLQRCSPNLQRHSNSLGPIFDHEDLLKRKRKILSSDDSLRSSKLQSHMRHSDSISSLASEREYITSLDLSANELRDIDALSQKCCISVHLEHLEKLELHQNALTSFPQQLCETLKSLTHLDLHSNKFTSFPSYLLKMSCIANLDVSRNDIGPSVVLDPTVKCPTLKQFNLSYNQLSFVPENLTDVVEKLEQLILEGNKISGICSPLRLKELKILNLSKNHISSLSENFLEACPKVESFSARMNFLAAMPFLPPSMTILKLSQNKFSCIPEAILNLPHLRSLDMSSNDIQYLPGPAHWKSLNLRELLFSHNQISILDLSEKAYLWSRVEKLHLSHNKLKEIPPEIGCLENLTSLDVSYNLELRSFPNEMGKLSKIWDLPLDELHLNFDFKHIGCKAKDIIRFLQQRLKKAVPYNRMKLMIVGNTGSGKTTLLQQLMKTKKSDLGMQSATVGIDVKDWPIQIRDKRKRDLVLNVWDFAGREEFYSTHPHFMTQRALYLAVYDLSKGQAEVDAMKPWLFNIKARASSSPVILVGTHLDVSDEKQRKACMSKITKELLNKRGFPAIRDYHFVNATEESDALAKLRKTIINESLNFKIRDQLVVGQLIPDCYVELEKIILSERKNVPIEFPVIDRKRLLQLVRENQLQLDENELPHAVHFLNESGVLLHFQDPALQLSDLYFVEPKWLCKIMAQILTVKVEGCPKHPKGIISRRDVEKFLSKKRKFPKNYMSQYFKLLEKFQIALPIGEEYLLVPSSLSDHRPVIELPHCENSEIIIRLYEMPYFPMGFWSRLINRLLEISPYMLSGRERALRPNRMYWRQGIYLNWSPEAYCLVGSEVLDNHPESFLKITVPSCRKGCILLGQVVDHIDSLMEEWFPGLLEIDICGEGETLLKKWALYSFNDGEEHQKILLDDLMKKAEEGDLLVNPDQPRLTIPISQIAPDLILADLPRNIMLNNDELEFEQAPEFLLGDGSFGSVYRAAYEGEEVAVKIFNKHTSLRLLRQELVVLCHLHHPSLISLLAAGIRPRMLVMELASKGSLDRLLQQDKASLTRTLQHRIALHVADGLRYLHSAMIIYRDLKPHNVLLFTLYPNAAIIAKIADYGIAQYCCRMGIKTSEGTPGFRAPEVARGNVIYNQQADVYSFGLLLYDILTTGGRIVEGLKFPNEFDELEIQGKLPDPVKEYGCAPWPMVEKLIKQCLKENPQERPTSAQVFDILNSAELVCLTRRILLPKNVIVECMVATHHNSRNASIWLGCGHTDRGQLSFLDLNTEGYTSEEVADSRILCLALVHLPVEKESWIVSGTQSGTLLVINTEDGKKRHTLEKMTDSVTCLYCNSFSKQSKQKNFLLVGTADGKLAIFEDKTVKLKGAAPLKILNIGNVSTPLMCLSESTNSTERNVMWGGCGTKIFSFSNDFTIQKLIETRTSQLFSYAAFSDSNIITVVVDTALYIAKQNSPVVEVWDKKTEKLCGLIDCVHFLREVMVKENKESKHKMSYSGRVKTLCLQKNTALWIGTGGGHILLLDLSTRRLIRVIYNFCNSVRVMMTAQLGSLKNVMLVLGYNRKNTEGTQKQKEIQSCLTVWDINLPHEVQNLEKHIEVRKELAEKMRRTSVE
SMILES,IC50 [1] [µM],IC50 [2] [µM]
"COC1CNc2nc(ncc2Cl)Nc2c(nn(C3CCOCC3)c2C)OC1 (single isomer, unassigned) [E3, 14-chloro-10-methoxy-4-methyl-5-(oxan-4-yl)-8-oxa-2,5,6,12,16,17-hexaazatricyclo [11.3.1.0^3,7]heptadeca-1(16),3,6,13(17),14-pentaene]",≤ 0.1,≤ 0.1
"Cc1c2c(nn1C1CCOC1)OCCCNc1nc(ncc1C(F)(F)F)N2 (single isomer, unassigned) [E127, 4-methyl-5-(oxolan-3-yl)-14-(trifluoromethyl)-8-oxa-2,5,6,12,16,17-hexaazatricyclo[11.3.1.0^3,7]heptadeca-1(16),3,6,13(17),14-pentaene]",≤ 0.1,≤ 0.1
"Cc1c2c(nn1C(C)C1CCOCC1)OCCCNc1nc(ncc1Cl)N2 (single isomer, unassigned) [E186, 14-Chloro-4-methyl-5-[1-(oxan-4-yl)ethyl]-8-oxa-2,5,6,12,16,17-hexaazatricyclo[11.3.1.0^3,7]heptadeca-1(16), 3,6,13(17),14-pentaene]",≤ 0.1,≤ 0.1
"Cc1c2c(nn1C1CN(C3COC3)CCC1F)OCC[C@@H](C)Nc1nc(ncc1Cl)N2 (single isomer, unassigned) [E403]",≤ 0.1,≤ 0.1
"Cc1c2c(nn1[C@H]1CCOC1)OCC[C@@H](C)Nc1nc(ncc1Cl)N2 [E46, (11R)-14-chloro-4,11-dimethyl-5-[(3S)-oxolan-3-yl]-8-oxa-2,5,6,12,16,17-hexaaza tricyclo [11.3.1.0^3,7]heptadeca-1(16),3,6,13(17),14-pentaene]",≤ 0.1,≤ 10
"COC1CNc2nc(ncc2Cl)Nc2c(nn(C3CCOCC3F)c2C)OC1 (single isomer, unassigned) [E70, 14-Chloro-5-(3-fluorooxan-4-yl)-10-methoxy-4-methyl-8-oxa-2,5,6,12,16,17-hexaaza tricyclo[11.3.1.0^3,7]heptadeca-1(16),3,6,13(17),14-pentaene]",≤ 0.1,≤ 0.1
"Clc1cnc2nc1NCCCOc1n[nH]c(Cl)c1N2 [E396, 4,14-Dichloro-8-oxa-2,5,6,12,16,17 hexaazatricyclo[11.3.1.0^3,7] heptadeca-1(16),3,6,13(17),14-pentaene]",≤ 0.1,≤ 0.1
"Cc1c2c(nn1C1CCOCC1)OCCC(CF)Nc1nc(ncc1Cl)N2 (single isomer, unassigned) [E54, 14-chloro-11-(fluoromethyl)-4-methyl-5-(oxan-4-yl)-8-oxa-2,5,6,12, 16,17-hexaazatricyclo[11.3.1.0^3,7]heptadeca-1(16),3,6,13(17),14-pentaene]",≤ 0.1,≤ 0.1
"Cc1c2c(nn1C1CCOC1)OCCCNc1nc(ncc1Cl)N2 (single isomer, unassigned) [E123, 14-chloro-4-methyl-5-(oxolan-3-yl)-8-oxa-2,5,6,12,16,17-hexaazatricyclo[11.3.1.0^3,7]heptadeca-1(16),3,6,13(17), 14-pentaene]",≤ 0.1,≤ 0.1
"Cc1c2c(nn1C1CC(N3CC4CC3CO4)C1)OCC[C@@H](C)Nc1nc(ncc1Cl)N2 (stereo in doubt) [E318, (11R)-14-Chloro-4,11-dimethyl-5-{3-[(1R,4R)-2-oxa-5-azabicyclo[2.2.1]heptan-5-yl]cyclobutyl}-8-oxa-2,5,6,12,16,17-hexaazatricyclo[11.3.1.0^3,7]heptadeca-1(16),3,6,13(17),14-pentaene]",≤ 0.1,≤ 0.1
"Cc1c2c(nn1C1CCOCC1)OCCCCNc1nc(ncc1Cl)N2 [E109, 15-Chloro-4-methyl-5-(oxan-4-yl)-8-oxa-2,5,6,13,17,18-hexaaza tricyclo[12.3.1.0^3,7]octadeca-1(17),3,6,14(18),15-pentaene]",≤ 0.1,≤ 0.1
"Cc1c2c(nn1CCN1C[C@@H]3C[C@H]1CO3)OCCCNc1nc(ncc1Cl)N2 (stereo in doubt) [E221, 14-Chloro-4-methyl-5-{2-[(1S,4S)-2-oxa-5-azabicyclo[2.2.1]heptan-5-yl]ethyl}-8-oxa-2,5,6,12,16,17-hexaazatricyclo [11.3.1.0^3,7]heptadeca-1(16),3,6,13(17),14-pentaene]",≤ 0.1,≤ 0.1
"Cc1c2c(nn1C1CC(N3CCOCC3)C1)OCCCNc1nc(ncc1Cl)N2 (centres unmarked) [E45, 14-Chloro-4-methyl-5-[3-(morpholin-4-yl)cyclobutyl]-8-oxa-2,5,6,12,16,17-hexaaza tricyclo[11.3.1.0^3,7]heptadeca-1(16),3,6,13(17),14-pentaene]",≤ 0.1,≤ 0.1
"Cc1c2c(nn1C1CCOCC1(C)C)OCC[C@@H](C)Nc1nc(ncc1Cl)N2 (single isomer, unassigned) [E422]",≤ 0.1,≤ 0.1
"Cc1[nH]nc2c1Nc1ncc(C(F)(F)F)c(n1)NCCCO2 [E433, 4-Methyl-14-(trifluoromethyl)-8-oxa-2,5,6,12,16,17-hexaazatricyclo[11.3.1.0^3,7]heptadeca-1(16),3,6,13(17),14-pentaene]",≤ 0.1,≤ 0.1
"Cc1c2c(nn1C1CCC(N3C[C@H]4C[C@@H]3CO4)CC1)OCCC(C)Nc1nc(ncc1Cl)N2 (single isomer, unassigned) [E57]",≤ 0.1,≤ 0.1
"Cc1c2c(nn1C(C)(C)C)OCC[C@@H](C)Nc1nc(ncc1Cl)N2 [E417, (11R)-5-tert-Butyl-14-chloro-4,11-dimethyl-8-oxa-2,5,6,12,16,17-hexaazatricyclo[11.3.1.0^3,7]heptadeca-1(16),3,6,13(17),14-pentaene]",≤ 0.1,≤ 0.1
"Cc1c2c(nn1CC(F)(F)F)OCCCNc1nc(ncc1Cl)N2 [E266, 14-Chloro-4-methyl-5-(2,2,2-trifluoroethyl)-8-oxa-2,5,6,12,16,17-hexaazatricyclo[11.3.1.0^3,7]heptadeca-1(16),3,6,13(17),14-pentaene]",≤ 0.1,≤ 0.1
"Cc1c2c(nn1C1CCOCC1)OCC(F)C(CF)Nc1nc(ncc1Cl)N2 (centres unmarked) [E391, 14-Chloro-10-fluoro-11-(fluoromethyl)-4-methyl-5-(oxan-4-yl)-8-oxa-2,5,6,12,16,17-hexaazatricyclo[11.3.1.0^3,7]heptadeca-1(16),3,6,13(17),14-pentaene]",≤ 0.1,≤ 0.1
"Cc1c2c(nn1C1CC(OC(F)F)C1)OCC[C@@H](C)Nc1nc(ncc1Cl)N2 (stereo partly drawn) [E378, (11R)-14-Chloro-5-[3-(difluoromethoxy)cyclobutyl]-4,11-dimethyl-8-oxa-2,5,6,12,16,17-hexaazatricyclo[11.3.1.0^3,7] heptadeca-1(16),3,6,13(17),14-pentaene]",≤ 0.1,≤ 0.1
"Cc1c2c(nn1C1COCCC1(F)F)OCCCNc1nc(ncc1Cl)N2 (racemic) [E364, 14-Chloro-5-(4,4-difluorooxan-3-yl)-4-methyl-8-oxa-2,5,6,12,16,17-hexaazatricyclo[11.3.1.0^3,7]heptadeca-1(16),3,6,13(17),14-pentaene]",≤ 0.1,≤ 0.1
"Cc1c2c(nn1C1CCN(C3COC3)CC1(F)F)OCCCNc1nc(ncc1Cl)N2 (single isomer, unassigned) [E406, 14-Chloro-5-[3,3-difluoro-1-(oxetan-3-yl)piperidin-4-yl]-4-methyl-8-oxa-2,5,6,12,16,17-hexaazatricyclo[11.3.1.0^3,7]heptadeca-1(16),3,6,13(17),14-pentaene]",≤ 0.1,≤ 0.1
"Cc1c2c(nn1C1CCCOC1)OCCCNc1cc(ncc1Cl)N2 (centres unmarked) [E379, 14-Chloro-4-methyl-5-(oxan-3-yl)-8-oxa-2,5,6,12,16-pentaazatricyclo[11.3.1.0^3,7] heptadeca-1 (16),3,6,13(17),14-pentaene]",≤ 0.1,≤ 0.1
"COC1CNc2nc(ncc2Cl)Nc2c(nn(CC3CCOCC3)c2C)OC1 (single isomer, unassigned) [E274, 14-Chloro-10-methoxy-4-methyl-5-(oxan-4-ylmethyl)-8-oxa-2,5,6,12,16,17-hexaazatricyclo[11.3.1.0^3,7] heptadeca-1(16),3,6,13(17),14-pentaene]",≤ 0.1,≤ 0.1
"FC(F)c1c2c(nn1C1CCOCC1)OCCCNc1nc(ncc1Cl)N2 [E112, 4-Chloro-4-(difluoromethyl)-5-(oxan-4-yl)-8-oxa-2,5,6,12,16,17-hexaazatricyclo[11.3.1.0^3,7]heptadeca-1(16),3,6,13(17),14-pentaene]",≤ 0.1,≤ 0.1
"Cc1c2c(nn1C1COCCC1(F)F)OCC[C@@H](C)Nc1nc(ncc1Cl)N2 (single isomer, unassigned) [E305]",≤ 0.1,≤ 0.1
"Cc1c2c(nn1C1CC(O)C1)OCC[C@@H](C)Nc1nc(ncc1Cl)N2 (stereo partly drawn) [E375, 3-[(11R)-14-Chloro-4,11-dimethyl-8-oxa-2,5,6,12,16,17-hexaazatricyclo[11.3.1.0^3,7]heptadeca-1(16),3,6,13(17),14-pentaen-5-yl]cyclobutan-1-ol]",≤ 0.1,≤ 0.1
"Cc1c2c(nn1C1CCOCC1)OCCCOc1nc(ncc1Cl)N2 [E110, 14-Chloro-4-methyl-5-(oxan-4-yl)-8,12-dioxa-2,5,6,16,17-pentaazatricyclo[11.3.1.0^3,7]heptadeca-1(16),3,6,13(17),14-pentaene]",≤ 0.1,≤ 0.1
